Measured values: the supplement of paper PMC10307832

Columns and labels:
Assay in all cases: relative viability (nuclei count vs DMSO), 5 days (fraction); higher = more cells survive
Bortezomib + Linsitinib = compound: CC(C)C[C@H](NC(=O)[C@H](Cc1ccccc1)NC(=O)c1cnccn1)B(O)O [Bortezomib] + C[C@]1(O)C[C@@H](c2nc(-c3ccc4ccc(-c5ccccc5)nc4c3)c3c(N)nccn32)C1 [Linsitinib] (partner 1 µM)
How it was run: (§1)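 Lung cancer cell lines in 1536-well plates got either a single drug or a fixed anchor-drug dose together with five library-drug doses (not always all listed) in √10 steps, by pin tool, on the day after seeding. Nuclei were counted after 5 days, and relative viability is the treated-to-vehicle ratio of nuclei counts. Values are medians of duplicate plates.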

Obatoclax + Foretinib = compound: COC1=CC(c2cc3ccccc3[nH]2)=N/C1=C\c1[nH]c(C)cc1C [Obatoclax] + COc1cc2c(Oc3ccc(NC(=O)C4(C(=O)Nc5ccc(F)cc5)CC4)cc3F)ccnc2cc1OCCCN1CCOCC1 [Foretinib] (partner 0.25 µM)
How it was run: as §1

Bortezomib + Pictilisib = compound: CC(C)C[C@H](NC(=O)[C@H](Cc1ccccc1)NC(=O)c1cnccn1)B(O)O [Bortezomib] + CS(=O)(=O)N1CCN(Cc2cc3nc(-c4cccc5[nH]ncc45)nc(N4CCOCC4)c3s2)CC1 [Pictilisib] (partner 1 µM)
How it was run: as §1

Obatoclax + Alpelisib = compound: COC1=CC(c2cc3ccccc3[nH]2)=N/C1=C\c1[nH]c(C)cc1C [Obatoclax] + Cc1nc(NC(=O)N2CCC[C@H]2C(N)=O)sc1-c1ccnc(C(C)(C)C(F)(F)F)c1 [Alpelisib] (partner 2 µM)
How it was run: as §1

Cell Line	relative viability (Bortezomib + Linsitinib; first compound 0.0002 µM)	relative viability (Bortezomib + Linsitinib; first compound 0.000632 µM)	relative viability (Bortezomib + Linsitinib; first compound 0.002 µM)	relative viability (Bortezomib + Linsitinib; first compound 0.006325 µM)	relative viability (Bortezomib + Linsitinib; first compound 0.02 µM)	relative viability (Obatoclax + Foretinib; first compound 0.01 µM)	relative viability (Obatoclax + Foretinib; first compound 0.03162 µM)	relative viability (Obatoclax + Foretinib; first compound 0.1 µM)	relative viability (Obatoclax + Foretinib; first compound 0.3162 µM)	relative viability (Obatoclax + Foretinib; first compound 1 µM)	relative viability (Bortezomib + Pictilisib; first compound 0.0002 µM)	relative viability (Bortezomib + Pictilisib; first compound 0.000632 µM)	relative viability (Bortezomib + Pictilisib; first compound 0.002 µM)	relative viability (Bortezomib + Pictilisib; first compound 0.006325 µM)	relative viability (Bortezomib + Pictilisib; first compound 0.02 µM)	relative viability (Obatoclax + Alpelisib; first compound 0.01 µM)	relative viability (Obatoclax + Alpelisib; first compound 0.03162 µM)	relative viability (Obatoclax + Alpelisib; first compound 0.1 µM)	relative viability (Obatoclax + Alpelisib; first compound 0.3162 µM)	relative viability (Obatoclax + Alpelisib; first compound 1 µM)
NCI-H1299	1	0.917	1.1	0.452	0.118	1.08	1.12	1.08	1.08	1.05	0.722	0.776	0.511	0.0727	0.0315	1.01	1.1	0.985	1.04	1
NCI-H1355	0.85	0.777	0.615	0.837	0.124	1.04	0.936	0.986	0.94	0.529	0.376	0.396	0.497	0.202	0.136	0.866	0.905	0.795	0.681	0.658
NCI-H1395	1.02	0.97	0.463	0.382	0.347	0.938	0.702	0.929	1.01	0.766	0.566	0.58	0.531	0.445	0.294	1.14	1.2	0.982	0.954	0.474
NCI-H1437	1.04	1.1	0.885	0.0922	0.101	1.22	1.28	1.21	1.16	1.25	0.41	0.512	0.434	0.0867	0.0795	0.97	0.922	0.962	1.01	0.88
NCI-H1563	1.25	1.25	1.02	0.534	0.466	0.903	0.91	1.04	0.824	0.806	0.68	0.622	0.655	0.538	0.486	0.917	0.922	0.934	0.867	0.791
NCI-H1651	0.943	0.996	0.31	0.133	0.12	0.766	0.734	0.774	0.47	0.42	0.406	0.532	0.591	0.0909	0.0929	0.884	0.765	1.04	0.611	0.236
NCI-H1666	0.791	0.777	0.932	0.226	0.2	0.952	0.989	0.959	0.482	0.384	0.451	0.518	0.41	0.198	0.168	0.93	0.903	0.881	0.255	0.223
NCI-H1703	1.07	0.438	0.252	0.0867	0.0799	0.379	0.309	0.301	0.382	0.303	0.259	0.208	0.146	0.128	0.121	0.41	0.344	0.412	0.321	0.276
NCI-H1734	0.898	0.674	0.814	0.192	0.129	0.81	0.863	0.9	0.785	0.628	0.483	0.301	0.36	0.224	0.128	0.682	0.619	–	0.57	0.511
NCI-H1755	1.01	0.955	1	0.323	0.149	0.913	0.937	0.886	0.908	0.961	0.441	0.322	0.43	0.171	0.137	0.871	0.906	0.871	0.871	0.889
NCI-H1793	0.771	0.723	0.808	0.778	0.149	0.602	0.743	0.758	0.609	0.675	0.282	0.305	0.297	0.269	0.18	0.702	0.629	0.885	0.678	0.795
NCI-H1915	1.13	1.13	1.01	1.07	0.0602	1.07	1.09	1.06	1.06	1.07	0.808	0.941	1.14	0.685	0.144	1.05	0.965	0.993	1.08	1.05
NCI-H1944	1.13	1.06	1.06	1.23	0.627	0.877	0.772	0.894	0.942	0.933	0.34	0.314	0.349	0.319	0.276	0.808	0.817	0.859	0.89	0.839
NCI-H1975	0.965	0.964	0.189	0.144	0.125	0.973	1.02	–	0.854	0.296	0.271	0.22	0.173	0.105	0.115	0.629	0.666	0.663	0.476	0.182
NCI-H1993	0.683	0.766	0.733	0.499	0.58	0.766	0.757	0.807	0.771	0.876	0.915	0.654	0.804	0.528	0.625	0.704	0.648	0.682	0.667	0.6
NCI-H2009	1.12	1.22	1.18	0.0695	0.058	1.24	1.25	1.23	0.477	0.333	0.602	0.675	0.797	0.0767	0.06	1.08	1.16	1.19	1.13	0.286
